According to US20240382555A1, “PEPTIDES WITH ANTI-ANGIOGENIC ACTIVITY” (priority 2021, published 2024):

Experiments:
Assay type in all cases: cell-based, human
HUVECs [1] = test: Tube formation assay, HUVECs on growth factor-reduced Matrigel with pro-angiogenic stimuli; conditions: for anti-angiogenic activity (number of tubes/well): HUVECs, 50 ng/ml VEGF-A or FGF-2, 10 ng/ml peptide, FIG. 5
Protocol: Tube formation assays were performed as described in Caccuri F. et al., “Evolution toward beta common chain receptor usage links the matrix proteins of HIV-1 and its ancestors to human erythropoietin,” Proc Natl Acad Sci USA. 2021; 11810.
Briefly, 150 μl of Cultrex Basement Membrane Extract (Matrigel; 10 mg/ml) (Trevigen Inc., Gaithersburg, MD, USA) or reduced growth factor Matrigel (Trevigen Inc.) were transferred to prechilled 48-well culture plates. The plates were then incubated for 1 h at 37° C.
Cells were resuspended in EGM growth medium containing 10% FBS and seeded (5×10^4 per well). […] Capillary structures were photographed with a Hitachi KP-D50 camera and then quantified as the number of tubes/well.
In some experiments, HUVECs were stimulated with optimal concentrations of human pro-angiogenic molecules such as vascular endothelial growth factor-A (VEGF-A), fibroblast growth factor-2 (FGF-2), or interleukin-8 (IL-8). Experiments were conducted using nucleofected cells or cells stimulated with U94-derived peptides.
To evaluate the ability of the peptide of sequence SEQ ID No. 2 to influence the ability of HUVECs to respond to stimulation exerted by different angiogenic mediators, HUVECs were seeded on growth-reduced Matrigel in the absence (NT) or presence of optimal concentrations of different pro-angiogenic stimuli (VEGF-A, FGF-2, or IL-8) alone or in the presence of a control peptide (CTRL) or of the peptide of sequence SEQ ID No. 2 (KDKY).
HUVECs were seeded on reduced growth factor Matrigel-coated wells wells in complete medium containing 50 ng/ml of VEGF-A or FGF-2 alone or in combination with 10 ng/ml of the control peptide (CTRL), or KDKY, AKDY, KAKY, KDAY or KDKA.
HUVECs were seeded on reduced growth factor Matrigel-coated wells in complete medium containing 50 ng/ml of VEGF-A or FGF-2 alone or in combination with 10 ng/ml of CTRL, KDKY, DKY or DRY.

[2] = tested on: SARS-CoV-2-infected HL-mECs; conditions: SARS-CoV-2-infected spheroids; FIG. 4
[3] = tested on: SARS-CoV-2-infected HL-mECs; conditions: growth factor-reduced Matrigel; MOI 1; FIG. 3
HUVECs [4] = test: Spheroids assay, HUVEC spheroids in type I collagen gel with pro-angiogenic stimuli; conditions: HUVEC spheroids stimulated with VEGF-A, FGF-2 or IL-8; FIG. 2
Protocol: The assay was performed using nucleofected cells or cells stimulated with U94-derived peptides. Spheroids were generated by mixing HUVECs (1.5×10^5 cells/ml) with 5 mg/ml methylcellulose (Sigma-Aldrich) in EGM growth medium containing 10% FBS, bringing the final volume to 10 ml.
The cells (100 μl/well) were then added to 96-well plates (Greiner Bio-one, Kremsmünster, Austria) and incubated at 37° C., in a 5% CO2 atmosphere for 24 hours.
Separately, the collagen I gel solution (Rat Tail, Corning) was maintained on ice and neutralized by adding NaOH 0.1 M and PBS 10× to a final pH of 7.4.
Then, 24-well plates were coated with neutralized collagen (200 μl/well) and incubated in a humidified 5% CO2 incubator for 1 hour at 37° C.
The spheroids from the 96-well plates were collected in Eppendorf tubes and centrifuged at 4000×rpm for 5 to 10 seconds. When a clear pellet was distinguished, the supernatant was removed and the pellet was kept in a volume of about 100 μl of collagen I-neutralized solution.
Each collagen-spheroid mixture was rapidly added to pre-coated 24-well plates at 100 μl/well and incubated for 1 h. […]
Sprouting occurred from the spheroid core, which was photographed with a Hitachi KP-D50 camera, and the sprout number was counted with the spheroids similar sizes from three different wells of the plate. […]

| Substance | anti-angiogenic activity (number of tubes/well) (HUVECs [1]) | SARS-CoV-2-induced angiogenesis (number of sprouts per spheroid) [2] | angiogenic activity (tube formation, number of tubes/well) (HUVECs [1]; HUVECs stimulated with VEGF-A, FGF-2 or IL-8, 8 hours after seeding on Matrigel, FIG. 1) | angiogenic activity (number of tubes/well) of SARS-CoV-2-infected HL-mECs [3] | sprouting response (number of sprouts per spheroid) (HUVECs [4]) |
| --- | --- | --- | --- | --- | --- |
| ADKY [tetra-peptide, first amino acid of KDKY replaced by alanine] | maintained potent anti-angiogenic activity | – | – | – | – |
| DKY | able to block angiogenic activity | – | – | – | – |
| DRY | able to block angiogenic activity | – | – | – | – |
| KDKY [SEQ ID No. 2] | able to block angiogenic activity | potently inhibited | significantly impaired | did not perform any angiogenic activity | drastic reduction in the sprouting response |
